Converted amounts (≈) assume the structure as drawn.
Tests used:
[1] = test system: Klebsiella pneumoniae; test: Antibacterial activity against Klebsiella pneumoniae ATCC […] assessed as bacterial growth inhibition in presence of CAMHB medium by broth microdilution method; format: functional
[2] = test system: Escherichia coli; test: Antibacterial activity against Escherichia coli ATCC 25922 assessed as bacterial growth inhibition in presence of CAMHB medium by broth microdilution method; format: functional
[3] = test system: Acinetobacter baumannii; test: Antibacterial activity against Acinetobacter baumannii ATCC 19606 assessed as bacterial growth inhibition in presence of CAMHB medium by broth microdilution method; format: functional
[4] = Cytotoxicity against dog MDCK cells incubated for 48 hrs by CCK-8 assay; format: toxicity, cell-based; settings: dog (Canis lupus familiaris)
[5] = test system: Pseudomonas aeruginosa; test: Antibacterial activity against Pseudomonas aeruginosa PAO1 assessed as bacterial growth inhibition in presence of CAMHB medium by broth microdilution method; format: functional
[6] = Cytotoxicity against green monkey Vero cells incubated for 48 hrs by CCK-8 assay; format: toxicity, cell-based; settings: green monkey (Chlorocebus sabaeus)
[7] = test system: Escherichia coli; test: Antibacterial activity against multi-drug resistant Escherichia coli 3 clinical isolate assessed as bacterial growth inhibition in presence of CAMHB medium by broth microdilution method; format: functional
[8] = test system: Escherichia coli; test: Antibacterial activity against multi-drug resistant Escherichia coli 1 clinical isolate assessed as bacterial growth inhibition in presence of CAMHB medium by broth microdilution method; format: functional
[9] = test system: Escherichia coli; test: Antibacterial activity against multi-drug resistant Escherichia coli 5 clinical isolate assessed as bacterial growth inhibition in presence of CAMHB medium by broth microdilution method; format: functional
[10] = test system: Acinetobacter baumannii; test: Antibacterial activity against multi-drug resistant Acinetobacter baumannii 3 clinical isolate assessed as bacterial growth inhibition in presence of CAMHB medium by broth microdilution method; format: functional
[11] = test system: Acinetobacter baumannii; test: Antibacterial activity against multi-drug resistant Acinetobacter baumannii 2 clinical isolate assessed as bacterial growth inhibition in presence of CAMHB medium by broth microdilution method; format: functional
[12] = test system: Escherichia coli; test: Antibacterial activity against ESBL(+) producing Escherichia coli ATCC 35218 assessed as bacterial growth inhibition in presence of CAMHB medium by broth microdilution method; format: functional
[13] = test system: Acinetobacter baumannii; test: Antibacterial activity against multi-drug resistant Acinetobacter baumannii 5 clinical isolate assessed as bacterial growth inhibition in presence of CAMHB medium by broth microdilution method; format: functional
[14] = test system: Acinetobacter baumannii; test: Antibacterial activity against multi-drug resistant Acinetobacter baumannii 4 clinical isolate assessed as bacterial growth inhibition in presence of CAMHB medium by broth microdilution method; format: functional
[15] = test system: Acinetobacter baumannii; test: Antibacterial activity against multi-drug resistant Acinetobacter baumannii 1 clinical isolate assessed as bacterial growth inhibition in presence of CAMHB medium by broth microdilution method; format: functional
[16] = test system: Escherichia coli; test: Antibacterial activity against multi-drug resistant Escherichia coli 4 clinical isolate assessed as bacterial growth inhibition in presence of CAMHB medium by broth microdilution method; format: functional
[17] = test system: Escherichia coli; test: Antibacterial activity against multi-drug resistant Escherichia coli 2 clinical isolate assessed as bacterial growth inhibition in presence of CAMHB medium by broth microdilution method; format: functional

| SMILES | MIC [1] | MIC [2] | MIC [3] | IC50 at 48 h [4] | MIC [5] | IC50 at 48 h [6] | further results |
| --- | --- | --- | --- | --- | --- | --- | --- |
| Fc1cc2c(c3ncccc13)OCN(Cc1cccc(Cl)c1)C2 | 50 µg/mL | 6.25 µg/mL | 6.25 µg/mL | 19 µg/mL (≈ 57.7 µM) | 50 µg/mL | 34 µg/mL (≈ 103 µM) |  |
| Fc1cc2c(c3ncccc13)OCN(CCc1cccc(Cl)c1)C2 | 50 µg/mL | 6.25 µg/mL | 6.25 µg/mL | 42.3 µg/mL (≈ 123 µM) | 100 µg/mL | > 50 µg/mL | MIC [7]: 50 µg/mL; MIC [8]: 50 µg/mL; MIC [9]: 50 µg/mL; MIC [10]: 25 µg/mL; MIC [11]: 25 µg/mL; MIC [12]: 25 µg/mL; MIC [13]: 25 µg/mL; MIC [14]: 12.5 µg/mL; MIC [15]: 6.25 µg/mL; MIC [16]: 50 µg/mL; MIC [17]: 50 µg/mL |
| Clc1ccc(OCCN2COc3c(cc(Br)c4cccnc34)C2)cc1 |  | 50 µg/mL |  |  |  |  |  |
| Fc1cc2c(c3ncccc13)OCN(CCc1ccc(Br)cc1)C2 | 100 µg/mL | 6.25 µg/mL | 3.12 µg/mL | 44.9 µg/mL (≈ 116 µM) | 100 µg/mL | > 50 µg/mL | MIC [7]: 50 µg/mL; MIC [8]: 50 µg/mL; MIC [9]: 50 µg/mL; MIC [10]: 12.5 µg/mL; MIC [11]: 3.12 µg/mL; MIC [12]: 25 µg/mL; MIC [13]: 6.25 µg/mL; MIC [14]: 25 µg/mL; MIC [15]: 12.5 µg/mL; MIC [16]: 50 µg/mL; MIC [17]: 50 µg/mL |
| Clc1ccc(OCCN2COc3c(cc(Cl)c4cccnc34)C2)cc1 |  | 25 µg/mL |  |  |  |  |  |
| Fc1cc(CN2COc3c(cc(Br)c4cccnc34)C2)cc(F)c1F |  | 25 µg/mL |  |  |  |  |  |
| Fc1ccc(CN2COc3c(cc(F)c4cccnc34)C2)c(F)c1 |  | 25 µg/mL |  |  |  |  |  |
| Fc1cc2c(c3ncccc13)OCN(CCc1cccc(Br)c1)C2 | 50 µg/mL | 6.25 µg/mL | 6.25 µg/mL | 32 µg/mL (≈ 82.5 µM) | 100 µg/mL | > 50 µg/mL | MIC [7]: 50 µg/mL; MIC [8]: 50 µg/mL; MIC [9]: 50 µg/mL; MIC [10]: 25 µg/mL; MIC [11]: 25 µg/mL; MIC [12]: 25 µg/mL; MIC [13]: 12.5 µg/mL; MIC [14]: 12.5 µg/mL; MIC [15]: 250 µg/mL; MIC [16]: 50 µg/mL; MIC [17]: 50 µg/mL |
| Clc1ccc(CCN2COc3c(cc(Cl)c4cccnc34)C2)cc1 | > 100 µg/mL | 12.5 µg/mL | 6.12 µg/mL | 39.7 µg/mL (≈ 110 µM) | 100 µg/mL | > 50 µg/mL |  |
| FC(F)(F)Oc1ccc(CN2COc3c(cc(Cl)c4cccnc34)C2)cc1 |  | 50 µg/mL |  |  |  |  |  |
| Fc1ccc(CCN2COc3c(cc(F)c4cccnc34)C2)cc1 | 100 µg/mL | 12.5 µg/mL | 12.5 µg/mL | 15.8 µg/mL (≈ 48.3 µM) | 100 µg/mL | 27.7 µg/mL (≈ 84.8 µM) |  |
| Fc1cc2c(c3ncccc13)OCN(CCOc1ccccc1)C2 |  | 25 µg/mL |  |  |  |  |  |
| Brc1cc2c(c3ncccc13)OCN(CCCc1ccccc1)C2 |  | 50 µg/mL |  |  |  |  |  |
| COc1ccc(CCN2COc3c(cc(Cl)c4cccnc34)C2)cc1OC |  | 25 µg/mL |  |  |  |  |  |
| COc1ccc(CCN2COc3c(cc(Br)c4cccnc34)C2)cc1OC |  | > 100 µg/mL |  |  |  |  |  |
| Fc1cc(CN2COc3c(cc(Cl)c4cccnc34)C2)cc(F)c1F |  | 25 µg/mL |  |  |  |  |  |
| Brc1cc2c(c3ncccc13)OCN(CCOc1ccccc1)C2 |  | 25 µg/mL |  |  |  |  |  |
| Cc1ccc(CCN2COc3c(cc(Cl)c4cccnc34)C2)cc1 |  | 50 µg/mL |  |  |  |  |  |
| Fc1cc2c(c3ncccc13)OCN(CCc1ccccc1)C2 | 50 µg/mL | 6.25 µg/mL | 6.25 µg/mL | 8.97 µg/mL (≈ 29.1 µM) | 100 µg/mL | 14.7 µg/mL (≈ 47.8 µM) |  |
| Fc1cc(CN2COc3c(cc(F)c4cccnc34)C2)cc(F)c1F |  | 25 µg/mL |  |  |  |  |  |
| Fc1cc2c(c3ncccc13)OCN(CCCCc1ccccc1)C2 | > 100 µg/mL | 6.25 µg/mL | 6.25 µg/mL | 29.3 µg/mL (≈ 87.1 µM) | 100 µg/mL | 36.1 µg/mL (≈ 107 µM) |  |
| Fc1cc2c(c3ncccc13)OCN(Cc1ccc(C(F)(F)F)cc1)C2 | 100 µg/mL | 12.5 µg/mL | 12.5 µg/mL | 7.93 µg/mL (≈ 21.9 µM) | 100 µg/mL | 46.1 µg/mL (≈ 127 µM) |  |
| Fc1cc2c(c3ncccc13)OCN(Cc1ccccc1)C2 |  | 25 µg/mL |  |  |  |  |  |
| Fc1cc2c(c3ncccc13)OCN(CCCc1ccccc1)C2 | 50 µg/mL | 6.25 µg/mL | 6.25 µg/mL | 26 µg/mL (≈ 80.5 µM) | 100 µg/mL | 13.6 µg/mL (≈ 42.1 µM) |  |
| Fc1ccc(CN2COc3c(cc(Cl)c4cccnc34)C2)c(F)c1 | 50 µg/mL | 6.25 µg/mL | 3.12 µg/mL | 34.2 µg/mL (≈ 98.6 µM) | 100 µg/mL | > 50 µg/mL | MIC [7]: 50 µg/mL; MIC [8]: 50 µg/mL; MIC [9]: 50 µg/mL; MIC [10]: 50 µg/mL; MIC [11]: 25 µg/mL; MIC [12]: > 100 µg/mL; MIC [13]: 50 µg/mL; MIC [14]: 25 µg/mL; MIC [15]: 50 µg/mL; MIC [16]: 50 µg/mL; MIC [17]: 50 µg/mL |
| Clc1cc2c(c3ncccc13)OCN(CCCCc1ccccc1)C2 | 100 µg/mL | 12.5 µg/mL | 3.12 µg/mL | 33.8 µg/mL (≈ 95.9 µM) | 100 µg/mL | > 50 µg/mL |  |

From ChEMBL document CHEMBL6153051, “Synthesis, biological evaluation and validation of IMB-881 derivatives as anti-Gram-negative bacterial agents” (Bioorg Med Chem, 2025)
